Laboratory results from ChEMBL document CHEMBL5370521, “New miconazole-based azoles derived from eugenol show activity against Candida spp. and Cryptococcus gattii by inhibiting the fungal ergosterol biosynthesis” (Eur J Med Chem, 2023).
Values after ≈ are worked out from the molar mass of the structure shown. Active and inactive are the calls of the source. The calls are words filed in the database; no cut-off is given here.

Assays:
Cryptococcus gattii VGI = assay: Antifungal activity against Cryptococcus gattii ATCC 24065 assessed as inhibition of fungal growth at highest concentration incubated for 24 to 48 hrs by CLSI protocol based broth microdilution method; format: functional; conditions: time 24-48 hrs
Nakaseomyces glabratus [1] = assay: Antifungal activity against Candida glabrata ATCC 2001 assessed as inhibition of fungal growth at highest concentration incubated for 24 to 48 hrs by CLSI protocol based broth microdilution method; format: functional, organism-based; conditions: time 24-48 hrs
Candida albicans [2] = assay: Antifungal activity against Candida albicans SC5314 assessed as inhibition of fungal growth at highest concentration incubated for 24 to 48 hrs by CLSI protocol based broth microdilution method; format: functional, organism-based; conditions: time 24-48 hrs
[3] = Cytotoxicity against H9c2 cells assessed as inhibition of cell proliferation incubated for 72 hrs by resazurin dye based microplate reader analysis; format: toxicity; conditions: rat
[Candida] auris [4] = Antifungal activity against Candida auris COLO 01 A assessed as inhibition of fungal growth at highest concentration incubated for 24 to 48 hrs by CLSI protocol based broth microdilution method; format: functional, organism-based; conditions: Candidozyma auris, time 24-48 hrs
Candida tropicalis [5] = assay: Antifungal activity against Candida tropicalis ATCC 750 assessed as inhibition of fungal growth at highest concentration incubated for 24 to 48 hrs by CLSI protocol based broth microdilution method; format: functional, organism-based; conditions: time 24-48 hrs
Pichia kudriavzevii [6] = assay: Antifungal activity against Candida krusei ATCC 20298 assessed as inhibition of fungal growth at highest concentration incubated for 24 to 48 hrs by CLSI protocol based broth microdilution method; format: functional, organism-based; conditions: time 24-48 hrs
Candida parapsilosis [7] = assay: Antifungal activity against Candida parapsilosis ATCC 22019 assessed as inhibition of fungal growth at highest concentration incubated for 24 to 48 hrs by CLSI protocol based broth microdilution method; format: functional, organism-based; conditions: time 24-48 hrs
[8] = Antifungal activity against Cryptococcus gattii ATCC 24065 assessed as inhibition of fungal growth incubated for 24 to 48 hrs by CLSI protocol based broth microdilution method; format: functional, Cryptococcus gattii VGI; conditions: time 24-48 hrs
[9] = Selectivity index, ratio of CC50 for cytotoxicity against […] H9c2 cells to MIC for antifungal activity against Cryptococcus gattii ATCC 24065; format: toxicity, cell-based; conditions: rat, read-out: Selectivity Index
[Candida] auris [10] = Antifungal activity against Candida auris COLO 01 A assessed as inhibition of fungal growth incubated for 24 to 48 hrs by CLSI protocol based broth microdilution method; format: functional; conditions: Candidozyma auris, time 24-48 hrs
[11] = Selectivity index, ratio of CC50 for cytotoxicity against […] H9c2 cells to MIC for antifungal activity against Candida glabrata ATCC 2001; format: toxicity, cell-based; conditions: rat, read-out: Selectivity Index
[Candida] auris [12] = Potency index, ratio of miconazole MIC to test compound MIC for antifungal activity against Candida auris COLO 01 A assessed as inhibition of fungal growth incubated for 24 to 48 hrs by CLSI protocol based broth microdilution method; format: functional, Candidozyma auris; conditions: time 24-48 hrs
[Candida] auris [13] = Potency index, ratio of fluconazole MIC to test compound MIC for antifungal activity against Candida auris COLO 01 A assessed as inhibition of fungal growth incubated for 24 to 48 hrs by CLSI protocol based broth microdilution method; format: functional, Candidozyma auris; conditions: time 24-48 hrs
[14] = Selectivity index, ratio of CC50 for cytotoxicity against […] H9c2 cells to MIC for antifungal activity against Candida auris COLO 01 A; format: toxicity, cell-based; conditions: read-out: Selectivity Index
Nakaseomyces glabratus [15] = assay: Antifungal activity against Candida glabrata ATCC 2001 assessed as inhibition of fungal growth incubated for 24 to 48 hrs by CLSI protocol based broth microdilution method; format: functional; conditions: time 24-48 hrs
Candida tropicalis [16] = assay: Antifungal activity against Candida tropicalis ATCC 750 assessed as inhibition of fungal growth incubated for 24 to 48 hrs by CLSI protocol based broth microdilution method; format: functional; conditions: time 24-48 hrs
Candida albicans [17] = assay: Antifungal activity against Candida albicans SC5314 assessed as inhibition of fungal growth incubated for 24 to 48 hrs by CLSI protocol based broth microdilution method; format: functional; conditions: time 24-48 hrs
Candida parapsilosis [18] = assay: Antifungal activity against Candida parapsilosis ATCC 22019 assessed as inhibition of fungal growth incubated for 24 to 48 hrs by CLSI protocol based broth microdilution method; format: functional; conditions: Lodderomyces parapsilosis, time 24-48 hrs
Pichia kudriavzevii [19] = assay: Antifungal activity against Candida krusei ATCC 20298 assessed as inhibition of fungal growth incubated for 24 to 48 hrs by CLSI protocol based broth microdilution method; format: functional; conditions: time 24-48 hrs
[20] = Selectivity index, ratio of CC50 for cytotoxicity against […] H9c2 cells to MIC for antifungal activity against Candida albicans SC5314; format: toxicity, cell-based; conditions: read-out: Selectivity Index
[21] = molecular target: T1, Lanosterol 14-alpha demethylase (Candida albicans (strain SC5314 / ATCC MYA-2876) (Yeast), UniProt P10613); assay: Inhibition of CYP51 in Candida albicans SC5314 assessed as reduction in ergosterol level at 2 fold MIC incubated overnight by spectrophotometric analysis
[22] = molecular target: T1, Lanosterol 14-alpha demethylase; assay: Inhibition of CYP51 in Candida albicans SC5314 assessed as reduction in ergosterol level at 3 fold MIC incubated overnight by spectrophotometric analysis
Candida albicans [23] = assay: Potency index, ratio of miconazole MIC to test compound MIC for antifungal activity against Candida albicans SC5314 assessed as inhibition of fungal growth incubated for 24 to 48 hrs by CLSI protocol based broth microdilution method; format: functional; conditions: time 24-48 hrs
[24] = Selectivity index, ratio of CC50 for cytotoxicity against […] H9c2 cells to MIC for antifungal activity against Candida krusei ATCC 20298; format: toxicity, cell-based; conditions: read-out: Selectivity Index
[25] = Selectivity index, ratio of CC50 for cytotoxicity against […] H9c2 cells to MIC for antifungal activity against Candida tropicalis ATCC 750; format: toxicity, cell-based; conditions: read-out: Selectivity Index
[26] = Selectivity index, ratio of CC50 for cytotoxicity against […] H9c2 cells to MIC for antifungal activity against Candida parapsilosis ATCC 22019; format: toxicity, cell-based; conditions: read-out: Selectivity Index

T1 sequence (P10613 whole entry): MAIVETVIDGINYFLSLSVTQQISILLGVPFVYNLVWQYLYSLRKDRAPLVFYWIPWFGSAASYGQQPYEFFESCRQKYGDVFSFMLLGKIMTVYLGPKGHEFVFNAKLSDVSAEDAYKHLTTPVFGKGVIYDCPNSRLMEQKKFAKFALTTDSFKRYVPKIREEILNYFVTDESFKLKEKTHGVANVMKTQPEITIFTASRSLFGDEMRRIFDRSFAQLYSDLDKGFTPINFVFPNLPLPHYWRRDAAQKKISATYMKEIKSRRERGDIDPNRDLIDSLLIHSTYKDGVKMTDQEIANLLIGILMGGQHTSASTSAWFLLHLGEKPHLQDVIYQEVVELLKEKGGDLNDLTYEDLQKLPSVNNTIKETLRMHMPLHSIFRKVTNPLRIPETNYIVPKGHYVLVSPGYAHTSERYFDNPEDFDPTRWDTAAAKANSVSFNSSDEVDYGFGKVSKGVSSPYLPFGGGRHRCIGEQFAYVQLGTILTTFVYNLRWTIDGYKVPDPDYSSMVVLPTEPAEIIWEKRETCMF

SMILES	Activity (Cryptococcus gattii VGI)	Activity (Nakaseomyces glabratus [1])	Activity (Candida albicans [2])	CC50 at 72 h [3] [µM]	Activity ([Candida] auris [4])	Activity (Candida tropicalis [5])	Activity (Pichia kudriavzevii [6])	Activity (Candida parapsilosis [7])	MIC [8] [µM]	MIC (Nakaseomyces glabratus [15]) [µM]	also measured
CCCc1ccc(OCC(Cn2cncn2)OC(=O)c2ccc(Cl)cc2)c(OC)c1 (configuration not stated)	inactive	inactive	inactive	35.4	inactive	inactive	inactive	inactive			
CCCc1ccc(OCC(Cn2ccnc2)OC(=O)c2ccc(Cl)cc2)c(OC)c1 (configuration not stated)			inactive	35.5		inactive	inactive	inactive	72.7 (≈ 31.2 µg/mL)	36.4 (≈ 15.6 µg/mL)	selectivity ratio [9]: 0.5; MIC ([Candida] auris [10]): 36.4 µM (≈ 15.6 µg/mL); selectivity ratio [11]: 0.9; Ratio ([Candida] auris [12]): 2; Ratio ([Candida] auris [13]): >5; selectivity ratio [14]: 0.9
CCCc1ccc(OCC(O)Cn2ccnc2)c(OC)c1 (configuration not stated)	inactive	inactive	inactive	453	inactive	inactive	inactive	inactive			
C=CCc1ccc(OCC(Cn2cncn2)OC(=O)c2ccc(Cl)cc2)c(OC)c1 (configuration not stated)	inactive	inactive	inactive	96.2	inactive	inactive	inactive	inactive			
CCCc1ccc(OCC(Cn2cncn2)OCc2ccc(Cl)cc2)c(OC)c1 (configuration not stated)	inactive	inactive	inactive	40.1	inactive	inactive	inactive	inactive			
Clc1ccc(COC(Cn2ccnc2)c2ccc(Cl)cc2Cl)c(Cl)c1 (configuration not stated) [MICONAZOLE]									9.4 (≈ 3.91 µg/mL)	1.2 (≈ 0.499 µg/mL)	MIC (Candida tropicalis [16]): 31.2 µM (≈ 13 µg/mL); MIC (Candida albicans [17]): 150 µM (≈ 62.5 µg/mL); MIC ([Candida] auris [10]): 74.9 µM (≈ 31.2 µg/mL); MIC (Candida parapsilosis [18]): 7.8 µM (≈ 3.25 µg/mL); MIC (Pichia kudriavzevii [19]): 18.7 µM (≈ 7.78 µg/mL)
C=CCc1ccc(OCC(O)Cn2ccnc2)c(OC)c1 (configuration not stated)	inactive	inactive	inactive	644	inactive	inactive	inactive	inactive			
CCCc1ccc(OCC(O)Cn2cncn2)c(OC)c1 (configuration not stated)	inactive	inactive	inactive	553	inactive	inactive	inactive	inactive			
C=CCc1ccc(OCC(Cn2cncn2)OCc2ccc(Cl)cc2)c(OC)c1 (configuration not stated)	inactive	inactive	inactive	52.9	inactive	inactive	inactive	inactive			
CCCc1ccc(OCC(Cn2ccnc2)OCc2ccc(Cl)cc2)c(OC)c1 (configuration not stated)				44.2					18.8 (≈ 7.8 µg/mL)	37.6 (≈ 15.6 µg/mL)	selectivity ratio [20]: 2.3; MIC (Candida tropicalis [16]): 75.3 µM (≈ 31.2 µg/mL); MIC (Candida albicans [17]): 18.8 µM (≈ 7.8 µg/mL); inhibition (INH) [21]: Active; selectivity ratio [9]: 2.4; inhibition (INH) [22]: Active; Ratio (Candida albicans [23]): 8; MIC ([Candida] auris [10]): 75.3 µM (≈ 31.2 µg/mL); MIC (Candida parapsilosis [18]): 75.3 µM (≈ 31.2 µg/mL); selectivity ratio [11]: 1.2; Ratio ([Candida] auris [13]): >2; selectivity ratio [24]: 1.2; selectivity ratio [25]: 0.6; selectivity ratio [14]: 0.6; selectivity ratio [26]: 0.6; MIC (Pichia kudriavzevii [19]): 37.6 µM (≈ 15.6 µg/mL)
C=CCc1ccc(OCC(Cn2ccnc2)OC(=O)c2ccc(Cl)cc2)c(OC)c1 (configuration not stated)				129	inactive		inactive		73.2 (≈ 31.2 µg/mL)	36.5 (≈ 15.6 µg/mL)	selectivity ratio [20]: 28.2; MIC (Candida tropicalis [16]): 73.2 µM (≈ 31.2 µg/mL); MIC (Candida albicans [17]): 4.6 µM (≈ 1.96 µg/mL); selectivity ratio [9]: 1.8; inhibition (INH) [22]: Active; Ratio (Candida albicans [23]): 32; MIC (Candida parapsilosis [18]): 73.2 µM (≈ 31.2 µg/mL); selectivity ratio [11]: 3.5; selectivity ratio [25]: 1.8; selectivity ratio [26]: 1.8
OC(Cn1cncn1)(Cn1cncn1)c1ccc(F)cc1F [FLUCONAZOLE]									13.1 (≈ 4.01 µg/mL)	13.1 (≈ 4.01 µg/mL)	MIC (Candida tropicalis [16]): 0.8 µM (≈ 0.245 µg/mL); MIC (Candida albicans [17]): 1.6 µM (≈ 0.49 µg/mL); inhibition (INH) [21]: Active; inhibition (INH) [22]: Active; MIC ([Candida] auris [10]): 209 µM (≈ 64 µg/mL); MIC (Candida parapsilosis [18]): 3.3 µM (≈ 1.01 µg/mL); MIC (Pichia kudriavzevii [19]): 104 µM (≈ 32 µg/mL)
C=CCc1ccc(OCC(Cn2ccnc2)OCc2ccc(Cl)cc2)c(OC)c1 (configuration not stated)			inactive	33.6	inactive	inactive	inactive	inactive	18.9 (≈ 7.8 µg/mL)	36.8 (≈ 15.2 µg/mL)	selectivity ratio [9]: 1.8; selectivity ratio [11]: 0.9
C=CCc1ccc(OCC(O)Cn2cncn2)c(OC)c1 (configuration not stated)	inactive	inactive	inactive	541	inactive	inactive	inactive	inactive			
